Test results published in US10981932B2, “Macrocyclic indole derivatives” (Bayer Aktiengesellschaft, priority 2016, dated 2021).
Where a name gives a salt, the structure may show the parent alone. Read-outs that look alike come from different tables or passages of the source.

Assays:
[1] = test system: SUDHL5; experiment: Induction of cytotoxicity (CellTiter-Glo, 5 h), SUDHL5
[2] = test system: SUDHL10; experiment: Induction of cytotoxicity (CellTiter-Glo, 5 h), SUDHL10
[3] = test system: SUDHL5; experiment: Induction of caspase-3/7 activity (Caspase-Glo 3/7), SUDHL5; assay type: cell-based; conditions: caspase-3/7 induction, SUDHL5 cells, 3 h treatment, median
Procedure, shortened: (§1)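 DLBCL cells treated with compounds for 3 h at 37 °C, then caspase-3/7 activity read by Caspase-Glo 3/7 luminescence. Medium-only background subtracted; EC50 fitted with C0 fixed at 1 and top set to the reference compound's maximal induction.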

[4] = test system: SUDHL10; experiment: Anti-proliferative effect (CellTiter-Glo, 72 h), SUDHL10; assay type: cell-based; conditions: SUDHL10 cells, antiproliferation, 72 h incubation, median, read-out: Antiproli SUDHL10 [M] (median)
Procedure, shortened: (§2)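 Cells were treated with compounds for 72 h at 37 °C in a humidified incubator, and viability was measured by CellTiter-Glo luminescence. A parallel day 0 plate, read the same way, gave the time zero baseline.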

[5] = molecular target: MCL-1 (Homo sapiens, UniProt Q07820); experiment: Protein-protein interaction assay MCL-1/Noxa BH3 peptide (MCL-1 assay), TR-FRET; assay type: binding; conditions: MBP-MCL-1 / Noxa BH3-derived peptide, median
Procedure, shortened: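 TR-FRET, 665/622 nm emission ratio (excitation 330–350 nm), measured MCL-1/Noxa complex formation. 1 nM MBP-MCL-1, 50 mM Tris/HCl pH 7, 0.1% BGG, 2 mM DTT. Incubation 1 h at 22 °C, then overnight at 4 °C. IC50 by 4-parameter regression, normalized to DMSO (0%) and no-MCL-1 (100%) controls.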

[6] = test system: SUDHL5; experiment: Anti-proliferative effect (CellTiter-Glo, 72 h), SUDHL5; assay type: cell-based; conditions: SUDHL5 cells, antiproliferation, 72 h incubation, median, read-out: Antiproli SUDHL5 [M] (median)
Procedure, shortened: as §2

[7] = test system: SUDHL10; experiment: Induction of caspase-3/7 activity (Caspase-Glo 3/7), SUDHL10; assay type: cell-based; conditions: caspase-3/7 induction, SUDHL10 cells, 3 h treatment, median
Procedure, shortened: as §1

[8] = test system: OPM2; experiment: Anti-proliferative effect (CellTiter-Glo, 72 h), OPM2; assay type: cell-based; conditions: OPM2 cells, median, read-out: IC50 antiproliferation assay OPM2 [M] (median)
Procedure, shortened: as §2

[9] = test system: A2780; experiment: Anti-proliferative effect (CellTiter-Glo, 72 h), A2780; assay type: cell-based; conditions: A2780 cells, median, read-out: IC50 antiproliferation assay A2780 [M] (median)
Procedure, shortened: as §2

[10] = Homo sapiens, SU-DHL-5, 5 h, read-out: Cytotox SUDHL5 [M] (median), SUDHL5 cells, cytotoxicity induction, CellTiter-Glo, 5 h incubation, median
[11] = Homo sapiens, SU-DHL10, 5 h, read-out: Cytotox SUDHL10 [M] (median), SUDHL10 cells, cytotoxicity induction, CellTiter-Glo, 5 h incubation, median
[12] = read-out: Cytotox SUDHL5 [M] (median), SUDHL5 cells, cytotoxicity induction, CellTiter-Glo, 5 h incubation, median
[13] = read-out: Cytotox SUDHL10 [M] (median), SUDHL10 cells, cytotoxicity induction, CellTiter-Glo, 5 h incubation, median

Sequence of MCL-1 (Q07820 whole entry): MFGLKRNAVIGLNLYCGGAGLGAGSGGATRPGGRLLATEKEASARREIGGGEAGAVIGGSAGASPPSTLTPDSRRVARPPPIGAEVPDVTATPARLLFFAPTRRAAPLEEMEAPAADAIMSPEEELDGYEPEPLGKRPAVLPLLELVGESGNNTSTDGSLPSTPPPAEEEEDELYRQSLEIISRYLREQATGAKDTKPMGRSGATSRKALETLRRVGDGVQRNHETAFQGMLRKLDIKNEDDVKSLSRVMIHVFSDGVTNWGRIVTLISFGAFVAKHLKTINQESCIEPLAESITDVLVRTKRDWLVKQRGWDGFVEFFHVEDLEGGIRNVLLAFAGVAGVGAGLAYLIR

EC50 ([3]; Homo sapiens, SU-DHL-5, 3 h) | IC50 ([4]; Homo sapiens, SU-DHL10, 72 h) | IC50 [5] | IC50 ([6]; Homo sapiens, SU-DHL-5, 72 h) | EC50 ([7]; Homo sapiens, SU-DHL10, 3 h) | IC50 ([9]; Homo sapiens, A2780, 72 h) | EC50 [3] | IC50 [4] | IC50 [6] | EC50 [7] | IC50 [9] | SMILES | IC50 [1, 10] | IC50 [2, 11] | IC50 ([8]; Homo sapiens, OPM-2, 72 h) | IC50 [1, 12] | IC50 [2, 13] | IC50 [8]
3.73 µM | 4.25e-06 M | 0.0127 µM | 2.99e-06 M | 4.39 µM | 8.94e-06 M |  |  |  |  |  | CN(C)S(=O)(=O)N1CCN(c2ccc(OCc3nn(C)c4c3-c3cccc5c(CCCOc6cccc7ccccc67)c(C(=O)O)n(c35)CC=CCOC4)cc2)CC1 (racemic) [Example 1-17, (rac)-(E/Z)-3-({4-([4-(dimethylsulfamoyl)piperazin-1-yl]phenoxy}methyl)-1-methyl-7-[3-(naphthalen-1-yloxy)propyl]-1,10,13,15-tetrahydropyrazolo[4′,3′:9,10][1,6]oxazacycloundecino[8,7,6-hi]indole-8-carboxylic Acid] | 4.36e-06 M | 6.88e-06 M | 4.37e-06 M |  |  | 
3.47 µM | 2.14e-05 M | 0.00251 µM | 5.77e-06 M | 2.45 µM | > 3.3e-05 M |  |  |  |  |  | CN(C)S(=O)(=O)N1CCN(c2ccc(OCc3nn(C)c4c3-c3cccc5c(CCCOc6cccc7ccccc67)c(C(=O)O)n(c35)CCCCCC4)cc2)CC1 (racemic) [Example 1-39, (rac)-3-({4-[4-(dimethysulfamoyl)piperazin-1-yl]phenoxy}methyl)-1-methyl-7-[3-(naphthalen-1-yloxy)propyl]-10,11,12,13,14,15-hexahydro-1H-pyrazolo[4′,3′:4,5]azacycloundecino[3,2,1-hi]indole-8-carboxylic Acid] | 2.05e-06 M | 1.82e-06 M | > 3.3e-05 M |  |  | 
 |  | 0.00297 µM |  |  |  | 5.36 µM | 4.36e-06 M | 1.01e-05 M | 15.6 µM | 2.67e-05 M | CCOCc1nn(C)c2c1-c1cccc3c(CCCOc4cccc5ccccc45)c(C(=O)O)n(c13)CCCCOC2 (single isomer, unassigned; enantiomer 2) [Example 170, 3-(ethoxymethyl)-1-methyl-7-[3-(naphthalen-1-yloxy)propyl]-1,10,11,12,13,15-hexahydropyrazolo[4′,3′:9,10][1,6]oxazacycloundecino[8,7,6-hi]indole-8-carboxylic Acid (Enantiomer 2)] |  |  |  | 6.94e-06 M | 2e-05 M | 1.34e-05 M
23.9 µM | 1.44e-05 M | 0.0173 µM | > 3.3e-05 M | > 33 µM | 2.05e-05 M |  |  |  |  |  | CN1CCCn2c(C(=O)O)c(CCCOc3cccc4ccccc34)c3cccc(c32)-c2cnn(C)c2C1 (racemic) [Example 1-96, (rac)-7,9-dimethyl-1-[3-(naphthalen-1-yloxy)propyl]-4,5,6,7,8,9-hexahydropyrazolo[3′,4′:7,8][1,5]diazecino[9,10,1-hi]indole-2-carboxylic Acid] | 1.84e-05 M | 2.95e-05 M | > 3.3e-05 M |  |  | 
7.55 µM | 3.87e-06 M | 0.00309 µM | 7.19e-06 M | 14.9 µM | 1.77e-05 M |  |  |  |  |  | COCCn1nc2c(c1C1CC1)-c1cccc3c(CCCOc4cccc5ccccc45)c(C(=O)O)n(c13)CCCCOC2 (racemic) [Example 084, (rac)-3-Cycopropyl-2-(2-methoxyethyl)-7-[3-(naphthalen-1-yloxy)propyl]-2,10,11,12,13,15-hexahydropyrazolo[4′,3′:9,10][1,6]oxazacycloundecino[8,7,6-hi]indole-8-carboxylic Acid] | 6.6e-06 M | 2.06e-05 M | 2.67e-05 M |  |  | 
14.5 µM |  | 0.67 µM |  | 13.1 µM |  |  | 3.36e-06 M | 1.02e-05 M |  | 5.49e-06 M | Cn1nc(COc2ccc(C3=CCOCC3)cc2)c2c1COCCCCn1c(C(=O)O)c(CCCOc3cccc4ccccc34)c3cccc-2c31 (single isomer, unassigned) [Example 1-62, 3-{[4-(3,6-dihydro-2H-pyran-4-yl)phenoxy]methyl}-1-methyl-7-[3-(naphthalen-1-yloxy)propyl]-1,10,11,12,13,15-hexahydropyrazolo[4′,3′:9,10][1,6]oxazacycloundecino[8,7,6-hi]indole-8-carboxylic Acid] | 1.2e-05 M |  | 7.6e-06 M |  | 1.96e-05 M | 
12.2 µM | 7.32e-06 M | 0.0189 µM | 1.17e-05 M | 17.3 µM | 1.31e-05 M |  |  |  |  |  | CN1CCCn2c(C(=O)O)c(CCCOc3cccc4ccccc34)c3cccc(c32)-c2c(COc3ccc(C4CCOCC4)cc3)nn(C)c2C1 (single isomer, unassigned) [Example 1-58, (+)-7,9-dimethyl-1-[3-(naphthalen-1-yloxy)propyl]-11-{[4-(tetrahydro-2H-pyran-4-yl)phenoxy]methyl}-4,5,6,7,8,9-hexahydropyrazolo[3′,4′:7,8][1,5]diazecino[9,10,1-hi]indole-2-carboxylic Acid] | 1.2e-05 M | 2.14e-05 M | 2.01e-05 M |  |  | 
4.42 µM | 6.3e-06 M | 0.00208 µM | 2.95e-06 M | 7.5 µM | 2.23e-05 M |  |  |  |  |  | COCC(=O)N1CCN(c2ccc(OCc3nn(C)c4c3-c3cccc5c(CCCOc6cccc7ccccc67)c(C(=O)O)n(c35)CCCCOC4)cc2)CC1 (racemic) [Example 1-27, (rac)-3-({4-[4-(methoxyacetyl)piperazin-1-yl]phenoxy}methyl)-1-methyl-7-[3-(naphthalen-1-yloxy)propyl]-1,10,11,12,13,15-hexahydropyrazolo[4′,3′:9,10][1,6]oxazacycloundecino[8,7,6-hi]indole-8-carboxylic Acid] | 3.53e-06 M | 8.44e-06 M | 8.75e-06 M |  |  | 
 |  | 0.34 µM |  |  |  | 16.1 µM | 2.95e-06 M | 9.8e-06 M | 17.8 µM | 6.25e-06 M | COC1(c2ccc(OCc3nn(C)c4c3-c3cccc5c(CCCOc6cccc7ccccc67)c(C(=O)O)n(c35)CCCCOC4)cc2)CCOCC1 (single isomer, unassigned) [Example 1-67, 3-{[4-(4-methoxytetrahydro-2H-pyran-4-yl)phenoxy]methyl}-1-methyl-7-[3-(naphthalen-1-yloxy)propyl]-1,10,11,12,13,15-hexahydropyrazolo[4′,3′:9,10][1,6]oxazacycloundecino[8,7,6-hi]indole-8-carboxylic Acid] |  |  |  | 1.22e-05 M | 2.29e-05 M | 1.19e-05 M
18.9 µM | 6.42e-06 M | 0.0331 µM | 1.17e-05 M | 24.4 µM | 1.11e-05 M |  |  |  | > 33 µM |  | CN1CCCn2c(C(=O)O)c(CCCOc3cccc4ccccc34)c3cccc(c32)-c2c(CNCC(F)(F)F)nn(C)c2C1 (single isomer, unassigned; enantiomer 1) [Example 130, 7,9-dimethyl-1-(3-(naphthalen-1-yloxy)propyl-11-{[(2,2,2-trifluoroethyl)amino]methyl}-4,5,6,7,8,9-hexahydropyrazolo[3′,4′:7,8][1,5]diazecino[9,10,1-hi]indole-2-carboxylic acid-N-ethylethanamine Salt (Enantiomer 1)] | 1.53e-05 M | 1.71e-05 M |  |  | > 3.3e-05 M | 6e-06 M
 |  | 0.0751 µM |  |  |  | > 33 µM | 1.49e-05 M | 2.3e-05 M | > 33 µM | > 3.3e-05 M | Cc1c2c(nn1C)COCCCCn1c(C(=O)O)c(CCCOc3cccc4ccccc34)c3cccc-2c31 (single isomer, unassigned; enantiomer 2) [Example 1-38, (−)-2,3-dimethyl-7-[3-(naphthalen-1-yloxy)propyl]-2,10,11,12,13,15-hexahydropyrazolo[4′,3′:9,10][1,6]oxazacycloundecino[8,7,6-hi]indole-8-carboxylic Acid (Enantiomer 2)] |  |  |  | > 3.3e-05 M | > 3.3e-05 M | 3.22e-05 M
